Experimental data reported in publication PMC2879362, “Design of Group IIA Secreted/Synovial Phospholipase A2 Inhibitors: An Oxadiazolone Derivative Suppresses Chondrocyte Prostaglandin E2 Secretion” (PLoS ONE, 2010).
Marks after values point to notes of the source that are not given here.

Columns and labels:
Assay type in all cases: cell-based, rabbit
[1] = tested on: IL-1β-stimulated PGE2 secretion in articular chondrocytes; test: IL-1β-stimulated PGE2 secretion in articular chondrocytes (EIA); conditions: for C8 inhibitory effect (%inhibition) on PGE2 secretion: DMEM with 2% FCS, 20 h; for decrease of PGE2 production induced by IL-1β: IL-1β 20 h
Experimental: We tested the effect of C8 on the IL-1β-stimulated secretion of PGE2 in chondrocytes. PGE2 synthesis takes place mainly in response to cell activation by IL-1β, and its generation accounts for many of the actions induced by this cytokine. In vitro, IL-1β induces the expression of COX-2 by chondrocytes, which results in increased PGE2 production. PGE2 release thus represents a powerful IL-1β- and PLA2-dependent inflammatory marker in our cell model. Chondrocytes were treated for 20 h with IL-1β alone or 1 h after the addition of C8. […] In DMEM alone, at concentrations of 0.31-, 0.62-, 0.94-, and 1.24-µM, C8 decreased the production of PGE2 induced by IL-1β by 59-, 58-, 74-, and 80-%, respectively (Fig. 4A). In DMEM supplemented with 0.1% BSA, at concentrations of 0.31-, 0.62-, 0.94-, 1.24-, 2.48-, and 4.96-µM, C8 decreased the production of PGE2 induced by IL-1β by 31-, 30-, 45-, 43-, 81-, and 92-%, respectively (Fig. 4B). In DMEM supplemented with 2% FCS, at concentrations of 0.31-, 0.62-, 0.94-, 1.24-, 2.48-, and 4.96-µM, C8 decreased the production of PGE2 induced by IL-1β by 26-, 48-, 49-, 54-, 68-, and 68-%, respectively (Fig. 4C). […] The effect of C8 was then evaluated at the extreme concentrations (0.31- and 4.96-µM) in DMEM supplemented with 2% FCS and containing decreasing (1-, 0.5-, and 0.25-ng/mL) IL-1β concentrations (Table 3). The anti-IL-1β inhibitory effect of C8 at 0.31 µM increases when IL-1β concentration decreases. […] This is probably due to the fact that at 4.96 µM, the inhibitory effect of C8 on IL-1β-induced PGE2 production is maximal. […] Thus, C8, but not C1, decreases the IL-1β-stimulated PGE2 secretion in a dose-dependent manner in the three culture medium compositions used.
Articular chondrocytes were isolated from 5-week-old Fauve de Bourgogne female rabbits (CPA, Orleans, France) and cultured at the first passage in conditions avoiding cell dedifferentiation as previously described. Cells were cultured at 37°C in 12-well plates in Ham's F-12 medium containing 10% FCS, 20 IU/mL penicillin, and 20 µg/mL streptomycin (all from Invitrogen) until nearly confluent. Then medium was replaced with DMEM (Invitrogen) containing 20 IU/mL penicillin, and 20 µg/mL streptomycin and, if necessary, 0.1% fatty acid free BSA (Sigma) or 2% FCS. At this time the C8 compound dissolved in DMSO (Sigma) was added to the medium (the amount of DMSO was kept at 1‰ (v/v) in all the wells). 1 h after the addition of C8, IL-1β (PeproTech) was added to the medium. Consequently, chondrocytes were incubated for 20 h with IL-1β and for 21 h with C8.
20 h after the addition of IL-1β to the chondrocytes, culture media were collected, and aliquots were stored at −80°C until PGE2 and nitrite quantification. PGE2 concentration in culture media was determined by use of an enzyme immunoassay (EIA) kit (PGE2 EIA Kit-monoclonal; Cayman Chemical). Nitrite concentration was determined by a spectrophotometry method based on the Griess reaction. Briefly, 200 µL of culture medium or sodium nitrite (NaNO2, Merck) standard dilutions were mixed with 100 µL Griess reagent [0.5% (w/v) sulphanilic acid (Merck), 0.05% (w/v) N(1-naphtyl)ethylenediamine (Merck), 30% (v/v) acetic acid, 1.5 N HCl] and incubated for 10 min at 50°C. The absorbance was measured at 540 nm.

COX-1 = test: Western blot of COX-1 protein level in IL-1β-treated chondrocytes; conditions: C8 0.31-1.24 µM in DMEM, IL-1β 20 h
Experimental: (§1) As expected, COX-1 protein was detectable but COX-2 and iNOS proteins were undetectable in untreated control conditions (Fig. 6A). […] Consequently, the protein ratio of COX-1 to COX-2 was not modified by C8 (Fig. 6B). […] Cell lysates were centrifuged for 15 min at 14000 rpm at 4°C and supernatants were collected. Protein concentrations were determined by the Bradford method by use of the Protein Assay dye reagent (Bio-Rad). Protein extracts (20 µg) were size-separated by SDS-PAGE in a 10% (w/v) polyacrylamide gel and electroblotted to a nitrocellulose membrane. Equal protein loading and transfer was confirmed by staining the membrane with Ponceau Red [0.2% (w/v) in H2O:acetic acid 99∶1]. The membrane was sequentially incubated with antibodies against COX-1 (1∶200, Santa Cruz Biotechnology), COX-2 (1∶500, Santa Cruz Biotechnology), iNOS (1∶400, BD Biosciences) or α-tubulin (1∶100, Santa Cruz Biotechnology) and then with peroxidase-conjugated donkey anti-goat IgG (1∶20000) or donkey anti-rabbit IgG (1∶200, both Santa Cruz Biotechnology). Immunocomplexes were detected by an enhanced chemiluminescence kit (Amersham Bioscience). The membrane was stripped by incubation in 0.2 M NaOH between successive immunodetections. Semi-quantitative scanning densitometry involved use of the ImageJ program (NIH, USA).

iNOS = test: Western blot of iNOS protein level in IL-1β-treated chondrocytes; conditions: C8 0.31-1.24 µM in DMEM, IL-1β 20 h
Experimental: as §1

## O=c1[nH]c(Cc2ccc(OCCCCCOc3cc4ccccc4c4ccccc34)cc2)no1 [C8]
[1]; C8 at 0.31 µM, IL-1β 0.25 ng/mL
  C8 inhibitory effect (%inhibition) on PGE2 secretion: 67 %inhibition
[1]; C8 at 0.31 µM, IL-1β 0.5 ng/mL
  C8 inhibitory effect (%inhibition) on PGE2 secretion: 60 ^* %inhibition
[1]; C8 at 4.96 µM, IL-1β 0.25 ng/mL
  C8 inhibitory effect (%inhibition) on PGE2 secretion: 65 %inhibition
[1]; C8 at 4.96 µM, IL-1β 0.5 ng/mL
  C8 inhibitory effect (%inhibition) on PGE2 secretion: 67 ^* %inhibition
[1]; C8 at 4.96 µM, IL-1β 1 ng/mL
  C8 inhibitory effect (%inhibition) on PGE2 secretion: 68 ^*** %inhibition
[1]; DMEM + 0.1% BSA, C8 0.31 µM
  decrease of PGE2 production induced by IL-1β: 31%
[1]; DMEM + 0.1% BSA, C8 0.62 µM
  decrease of PGE2 production induced by IL-1β: 30%
[1]; DMEM + 0.1% BSA, C8 0.94 µM
  decrease of PGE2 production induced by IL-1β: 45%
[1]; DMEM + 0.1% BSA, C8 1.24 µM
  decrease of PGE2 production induced by IL-1β: 43%
[1]; DMEM + 0.1% BSA, C8 2.48 µM
  decrease of PGE2 production induced by IL-1β: 81%
[1]; DMEM + 0.1% BSA, C8 4.96 µM
  down-regulation of IL-1β-stimulated secretion of PGE2: to the level of the control untreated condition
  decrease of PGE2 production induced by IL-1β: 92%
[1]; DMEM + 2% FCS, C8 0.31 µM
  decrease of PGE2 production induced by IL-1β: 26%
[1]; DMEM + 2% FCS, C8 0.62 µM
  decrease of PGE2 production induced by IL-1β: 48%
[1]; DMEM + 2% FCS, C8 0.94 µM
  decrease of PGE2 production induced by IL-1β: 49%
[1]; DMEM + 2% FCS, C8 1.24 µM
  decrease of PGE2 production induced by IL-1β: 54%
[1]; DMEM + 2% FCS, C8 2.48 µM
  decrease of PGE2 production induced by IL-1β: 68%
[1]; DMEM + 2% FCS, C8 4.96 µM
  decrease of PGE2 production induced by IL-1β: 68%
[1]; DMEM + 2% FCS, C8 2.48 and 4.96 µM
  down-regulation of IL-1β-stimulated secretion of PGE2: to the level of the control untreated condition
[1]; DMEM alone, C8 0.31 µM
  decrease of PGE2 production induced by IL-1β: 59%
[1]; DMEM alone, C8 0.62 µM
  decrease of PGE2 production induced by IL-1β: 58%
[1]; DMEM alone, C8 0.94 µM
  decrease of PGE2 production induced by IL-1β: 74%
[1]; DMEM alone, C8 1.24 µM
  decrease of PGE2 production induced by IL-1β: 80%
COX-1
  effect on COX-1 protein level: did not alter
iNOS
  effect on iNOS protein level: did not alter
